Source: patent publication US20260285857A1, “BICYCLIC AND HETEROCYCLIC AMIDE COMPOUNDS” (priority 2024, published 2026)

Tested on: immunoglobulin light chain protein WIL-FL T46L
Assay: Differential scanning fluorimetry (thermal shift) assay
Type: binding
Conditions: Table A; temperature shift [Tm]compound-[Tm]vehicle; recombinant WIL-FL T46L

Row | SMILES | DSF
1 | Cc1cc(N2CC[C@](C)(c3ccccc3)C2)cn2nc(C(=O)N[C@@H]3CCC[C@@H]3O)nc12 [Compound 142] | ***** (>2.5° C.=*****)
2 | COC(=O)CC1CCN(C(=O)c2nc3c(C)cc(N4CC[C@](C)(c5ccccc5)C4)cn3n2)C1 (stereo partly shown) [Compound 143] | ***** (>2.5° C.=*****)
3 | Cc1cc(N2CC[C@](C)(c3ccccc3)C2)cn2nc(C(=O)N3CCN(S(C)(=O)=O)CC3)nc12 [Compound 144] | ***** (>2.5° C.=*****)
4 | Cc1cc(N2CC[C@](C)(c3ccccc3)C2)cn2nc(C(=O)NC3COC4(CCOC4)C3)nc12 (stereo partly shown) [Compound 145] | ***** (>2.5° C.=*****)
5 | Cc1cc(N2CC[C@](C)(c3ccccc3)C2)cn2nc(C(=O)N3CC4(O)CC3C4)nc12 [Compound 146] | ***** (>2.5° C.=*****)
6 | Cc1cc(N2CC[C@](C)(c3ccccc3)C2)cn2nc(C(=O)NC3CCS(=N)(=O)C3)nc12 (stereo partly shown) [Compound 147] | ***** (>2.5° C.=*****)
7 | COC(CO)CNC(=O)c1nc2c(C)cc(N3CC[C@](C)(c4ccccc4)C3)cn2n1 (stereo partly shown) [Compound 148] | ***** (>2.5° C.=*****)
8 | Cc1cc(N2CC[C@](C)(c3ccccc3)C2)cn2nc(C(=O)N[C@H]3CNC[C@H]3F)nc12 [Compound 149] | ***** (>2.5° C.=*****)
9 | Cc1cc(N2CC[C@](C)(c3ccccc3)C2)cn2nc(C(=O)NC3CNCC3(F)F)nc12 (stereo partly shown) [Compound 150] | ***** (>2.5° C.=*****)
10 | Cc1cc(N2CC[C@](C)(c3ccccc3)C2)cn2nc(C(=O)NC3COC4(CNC4)C3)nc12 (stereo partly shown) [Compound 152] | ***** (>2.5° C.=*****)
11 | Cc1cc(N2CC[C@](C)(c3ccccc3)C2)cn2nc(C(=O)NC(C)(C)CO)nc12 [Compound 153] | ***** (>2.5° C.=*****)
12 | Cc1cc(N2CC[C@](C)(c3ccccc3)C2)cn2nc(C(=O)NC3CCC(F)(F)C3)nc12 (stereo partly shown) [Compound 154] | ***** (>2.5° C.=*****)
13 | Cc1cc(N2CC[C@](C)(c3ccccc3)C2)cn2nc(C(=O)NC34CC(CO)(C3)C4)nc12 [Compound 155] | ***** (>2.5° C.=*****)
14 | Cc1cc(N2CC[C@](C)(c3ccccc3)C2)cn2nc(C(=O)NC3CCN(N4C[C@@H](O)[C@@H](O)C4)C3)nc12 (stereo partly shown) [Compound 156] | ***** (>2.5° C.=*****)
15 | Cc1cc(N2CC[C@](C)(c3ccccc3)C2)cn2nc(C(=O)N[C@H]3COCC[C@@H]3O)nc12 [Compound 157] | ***** (>2.5° C.=*****)
16 | Cc1cc(N2CC[C@](C)(c3ccccc3)C2)cn2nc(C(=O)N3CC4C(C3)C4C(=O)O)nc12 (stereo partly shown) [Compound 158] | ***** (>2.5° C.=*****)
17 | Cc1cc(N2CC[C@](C)(c3ccccc3)C2)cn2nc(C(=O)N3CC[C@@](C)(O)C3)nc12 [Compound 159] | ***** (>2.5° C.=*****)
18 | Cc1cc(N2CC[C@](C)(c3ccccc3)C2)cn2nc(C(=O)N[C@@H]3CC[C@H]3O)nc12 [Compound 160] | ***** (>2.5° C.=*****)
19 | Cc1cc(N2CC[C@](C)(c3ccccc3)C2)cn2nc(C(=O)N[C@@H]3CC[C@@H]3O)nc12 [Compound 161] | ***** (>2.5° C.=*****)
20 | Cc1cc(N2CC[C@](C)(c3ccccc3)C2)cn2nc(C(=O)N[C@@H]3CN[C@H](C(C)(C)O)C3)nc12 [Compound 162] | ***** (>2.5° C.=*****)
21 | Cc1cc(N2CC[C@](C)(c3ccccc3)C2)cn2nc(C(=O)NC3(C(=O)O)CC3)nc12 [Compound 163] | ***** (>2.5° C.=*****)
22 | Cc1cc(N2CC[C@](C)(c3ccccc3)C2)cn2nc(C(=O)N(C)C3(C(=O)O)CC3)nc12 [Compound 164] | ***** (>2.5° C.=*****)

Row | SMILES | DSF
23 | Cc1cc(N2CC[C@](C)(c3ccccc3)C2)cn2nc(C(=O)NCC3(C(=O)O)CC3)nc12 [Compound 165] | ***** (>2.5° C.=*****)
24 | COC1CNCC1NC(=O)c1nc2c(C)cc(N3CC[C@](C)(c4ccccc4)C3)cn2n1 (stereo partly shown) [Compound 166] | ***** (>2.5° C.=*****)
25 | Cc1cc(N2CC[C@](C)(c3ccccc3)C2)cn2nc(C(=O)N[C@H]3C[C@](C)(O)C3)nc12 [Compound 167] | ***** (>2.5° C.=*****)
26 | Cc1cc(N2CC[C@](C)(c3ccccc3)C2)cn2nc(C(C)(C)OC3CCNC3)nc12 (stereo partly shown) [Compound 168] | **** (>1.5-2.5° C.=****)
27 | Cc1cc(N2CC[C@](C)(c3ccccc3)C2)cn2nc(C(=O)NC(C)(C)C(=O)O)nc12 [Compound 169] | ***** (>2.5° C.=*****)
28 | CNC(=O)c1nc2c(C)cc(N3CC[C@](C)(c4ccccc4)C3)cn2n1 [Compound 170] | ***** (>2.5° C.=*****)
29 | Cc1cc(N2CC[C@](C)(c3ccccc3)C2)cn2nc(C(=O)NCC34CCCN3CC(F)C4)nc12 (stereo partly shown) [Compound 171] | ***** (>2.5° C.=*****)
30 | Cc1cc(N2CC[C@](C)(c3ccccc3)C2)cn2nc(C(=O)NC34COC(C(=O)O)(C3)C4)nc12 [Compound 172] | ***** (>2.5° C.=*****)
31 | Cc1cc(N2CC[C@](C)(c3ccccc3)C2)cn2nc(C(=O)NC34COC(CO)(C3)C4)nc12 [Compound 173] | ***** (>2.5° C.=*****)
32 | Cc1cc(N2CC[C@](C)(c3ccccc3)C2)cn2nc(C(=O)N3CC[C@H](O)C3)nc12 [Compound 174] | ***** (>2.5° C.=*****)
33 | COC(=O)C12CCC(NC(=O)c3nc4c(C)cc(N5CC[C@](C)(c6ccccc6)C5)cn4n3)(C1)C2 [Compound 175] | ***** (>2.5° C.=*****)
34 | Cc1cc(N2CC[C@](C)(c3ccccc3)C2)cn2nc(C(=O)N3CCOC(C(=O)O)C3)nc12 (stereo partly shown) [Compound 176] | ***** (>2.5° C.=*****)
35 | Cc1cc(N2CC[C@](C)(c3ccccc3)C2)cn2nc(C(=O)N3CCOC4(CNC4)C3)nc12 [Compound 177] | ***** (>2.5° C.=*****)
36 | Cc1cc(N2CC[C@](C)(c3ccccc3)C2)cn2nc(C(=O)N3CCCC(C)(C(=O)O)C3)nc12 (stereo partly shown) [Compound 178] | ***** (>2.5° C.=*****)
37 | Cc1cc(N2CC[C@](C)(c3ccccc3)C2)cn2nc(C(=O)NC3CNC(C)(C(=O)O)C3)nc12 (stereo partly shown) [Compound 179] | ***** (>2.5° C.=*****)
38 | Cc1cc(N2CC[C@](C)(c3ccccc3)C2)cn2nc(C(=O)NC3COCC3(C)C(=O)O)nc12 (stereo partly shown) [Compound 180] | ***** (>2.5° C.=*****)
39 | Cc1cc(N2CC[C@](C)(c3ccccc3)C2)cn2nc(C(=O)NC34CCC(C(=O)O)(C3)OC4)nc12 (stereo partly shown) [Compound 181] | ***** (>2.5° C.=*****)
40 | Cc1cc(N2CC[C@](C)(c3ccccc3)C2)cn2nc(C(=O)N3CCC(OCC(=O)O)CC3)nc12 [Compound 182] | ***** (>2.5° C.=*****)
41 | Cc1cc(N2CC[C@](C)(c3ccccc3)C2)cn2nc(C(=O)NC34COC(C3)C4)nc12 [Compound 183] | ***** (>2.5° C.=*****)
42 | Cc1cc(N2CC[C@](C)(c3ccccc3)C2)cn2nc(C(=O)O)nc12 [Compound 184] | ** (>0.5-1 °C =**)
43 | Cc1cc(N2CC[C@](C)(c3ccccc3)C2)cn2nc(C(=O)NC34CNCC3C4)nc12 (stereo partly shown) [Compound 185] | ***** (>2.5° C.=*****)
44 | Cc1cc(N2CC[C@](C)(c3ccccc3)C2)cn2nc(C(=O)N[C@@H]3CNCC34CC4)nc12 [Compound 186] | ***** (>2.5° C.=*****)

Row | SMILES | DSF
45 | Cc1cc(N2CC[C@](C)(c3ccccc3)C2)cn2nc(C(=O)N[C@H]3CNCC34CC4)nc12 [Compound 187] | ***** (>2.5° C.=*****)
46 | CCC(=O)N1CCC(NC(=O)c2nc3c(C)cc(N4CC[C@](C)(c5ccccc5)C4)cn3n2)CC1 [Compound 188] | ***** (>2.5° C.=*****)
47 | Cc1cc(N2CC[C@](C)(c3ccccc3)C2)cn2nc(C(=O)NC3(C)CCNC3)nc12 (stereo partly shown) [Compound 189] | ***** (>2.5° C.=*****)
48 | Cc1cc(N2CC[C@](C)(c3ccccc3)C2)cn2nc(C(=O)NC3CCN(c4cncnc4)C3)nc12 (stereo partly shown) [Compound 190] | ***** (>2.5° C.=*****)
49 | Cc1cc(N2CC[C@](C)(c3ccccc3)C2)cn2nc(C(=O)N[C@@H]3CNC[C@@H]3O)nc12 [Compound 191] | ***** (>2.5° C.=*****)
50 | Cc1cc(N2CC[C@](C)(c3ccccc3)C2)cn2nc(C(=O)NC3CCN(CC(=O)O)C3)nc12 (stereo partly shown) [Compound 192] | ***** (>2.5° C.=*****)
51 | Cc1cc(N2CC[C@](C)(c3ccccc3)C2)cn2nc(C(=O)N[C@H]3CCN(CC(F)F)C3)nc12 [Compound 193] | ***** (>2.5° C.=*****)
52 | Cc1cc(N2CC[C@](C)(c3ccccc3)C2)cn2nc(C(=O)N3C[C@@H]4CN(c5cccc(C(=O)O)n5)C[C@@H]4C3)nc12 [Compound 194] | ***** (>2.5° C.=*****)
53 | Cc1cc(N2CC[C@](C)(c3ccccc3)C2)cn2nc(C(=O)N3CCC34CCCN(c3cccc(C(=O)O)n3)C4)nc12 (stereo partly shown) [Compound 195] | ***** (>2.5° C.=*****)
54 | Cc1cc(N2CC[C@](C)(c3ccccc3)C2)cn2nc(C(=O)N3CCOCC3)nc12 [Compound 196] | ***** (>2.5° C.=*****)
55 | Cc1cc(N2CC[C@](C)(c3ccccc3)C2)cn2nc(C(=O)N3CCCC(C(=O)O)C3)nc12 (stereo partly shown) [Compound 197] | ***** (>2.5° C.=*****)
56 | Cc1cc(N2CC[C@](C)(c3ccccc3)C2)cn2nc(C(=O)NC3CCOCC3)nc12 [Compound 198] | ***** (>2.5° C.=*****)
57 | Cc1cc(N2CC[C@](C)(c3ccccc3)C2)cn2nc(C(=O)NC3CC4CCC(C3)N4)nc12 (stereo partly shown) [Compound 199] | ***** (>2.5° C.=*****)
58 | Cc1cc(N2CC[C@](C)(c3ccccc3)C2)cn2nc(C(=O)NC3C4CCC3NC4)nc12 (stereo partly shown) [Compound 201] | ***** (>2.5° C.=*****)
59 | Cc1cc(N2CC[C@@](C)(c3ccccc3)C2)cn2nc(C(=O)NCC(O)C(F)(F)F)nc12 (stereo partly shown) [Compound 202] | ***** (>2.5° C.=*****)
60 | Cc1cc(N2CC[C@](C)(c3ccccc3)C2)cn2nc(C(=O)NC3CNC(C(F)(F)F)C3)nc12 (stereo partly shown) [Compound 203] | ***** (>2.5° C.=*****)
61 | Cc1cc(N2CC[C@](C)(c3ccccc3)C2)cn2nc(C(=O)NC34CCC(CO)(C3)C4)nc12 [Compound 204] | ***** (>2.5° C.=*****)
62 | Cc1cc(N2CC[C@](C)(c3ccccc3)C2)cn2nc(C(=O)NC3CC(O)(C(F)(F)F)C3)nc12 (stereo partly shown) [Compound 205] | ***** (>2.5° C.=*****)
63 | Cc1cc(N2CC[C@](C)(c3ccccc3)C2)cn2nc(C(=O)N[C@H](CO)C(C)C)nc12 [Compound 206] | ***** (>2.5° C.=*****)
64 | Cc1cc(N2CC[C@](C)(c3ccccc3)C2)cn2nc(C(=O)NC34CCC(C(=O)O)(C3)C4)nc12 [Compound 207] | ***** (>2.5° C.=*****)
